Results from article PMC10301603, “Potent and Selective Benzothiazole-Based Antimitotics with Improved Water Solubility: Design, Synthesis, and Evaluation as Novel Anticancer Agents” (Pharmaceutics, 2023).
Values after ≈ are worked out from the molar mass of the structure shown.

Tests used:
GL261 cells = experiment: Cell growth inhibition assay (MTT); assay type: cell-based, murine; conditions: Mus musculus, GL261, 72 h after drug exposure
Experimental: (§1) The cell lines were obtained from ATTC (Manassas, VA, USA). HeLa (human cervix epithelioid carcinoma), MCF7 (human breast adenocarcinoma), HepG2 (human hepatocellular carcinoma), U87 MG (human glioblastoma), T98G (human glioblastoma), GL261 (murine glioma), LNCaP (human prostate cancer), PC-3 (human prostate cancer), and HEK-293 (human embryonic kidney) were grown in Dulbecco’s modified Eagle’s medium (DMEM, Gibco, Waltham, MA, USA), supplemented with 10% (v/v) heat-inactivated fetal bovine serum (HIFBS, Sigma-Aldrich, St. Louis, MO, USA)), 2 mM L-glutamine, 100 μg/mL streptomycin, and 100 units/mL penicillin (Gibco, Waltham, MA, USA) at 37 °C in saturated humidity atmosphere containing 95% air and 5% CO2. Cell line HT-29 (human colon carcinoma) was grown in Roswell Park Memorial Institute (RPMI) 1640 medium (Gibco, Whaltman, MA, USA) supplemented with 10% HIFBS, 100 μg/mL streptomycin, and 100 units/mL penicillin (Gibco, Whaltman, MA, USA) at 37 °C in humidified 95% air and 5% CO2 atmosphere. MycoAlert kit (Lonza, Norwest, Australia) was used to routinely check the presence of mycoplasma, and only mycoplasma-free cells were employed in the experiments.
(§2) Cells were plated in 96-well plates (100 µL/well) at the following concentrations: 30,000 cells/mL (HepG2, U87 MG, T98G, C6, LNCaP, PC3, and HT-29 cells) or 15,000 cells/mL (HeLa and MCF-7 cells). Previous experiments were performed to choose the optimal cell concentration (70–80% confluence) and avoid the formation of cell aggregates. Cells were incubated in complete DMEM or RPMI 1640 medium (see above) at 37 °C and 5% CO2 atmosphere for 24 h to allow for cell attachment to the plate. Then, every compound was added (10 µL/well) to a final concentration of 10 µM. Non-treated cells were used as negative controls. The antiproliferative activity of compounds was measured 72 h after the treatments using the MTT reagent (3-[4,5-dimethylthiazol-2-yl]-2,5-diphenyltetrazolium bromide), (MTT Thiazolyl Blue Tetrazolium Bromide, Sigma-Aldrich, St. Louis, MO, USA) dissolved in PBS at 5 mg/mL. Compounds showing antiproliferative effects at 10 µM were selected to determine their IC50 value. For that purpose, compounds were used at different concentrations ranging from 10^−10 to 10^−2 M. Measurements were performed in triplicate, and each experiment was repeated three times. The IC50 value was determined for every compound using Origin software (OriginLab, Washington, USA). To study the sensitivity to MDR efflux pumps of compounds, the IC50 values were determined by following the same procedure but in the presence of verapamil (final concentration of 10 µM).

T98G cells = experiment: Cell growth inhibition assay (MTT); assay type: cell-based, human; conditions: Homo sapiens, T98G, 72 h after drug exposure
Experimental: as §1, §2

MCF7 cells = experiment: Cell growth inhibition assay (MTT); assay type: cell-based, human; conditions: Homo sapiens, MCF7; MTT, 72 h after drug exposure
Experimental: as §1, §2

HT-29 cells [1] = experiment: Cell growth inhibition assay (MTT); assay type: cell-based, human; conditions: Homo sapiens, HT-29, 72 h after drug exposure
Experimental: as §1, §2

U87MG cells = experiment: Cell growth inhibition assay (MTT); assay type: cell-based, human; conditions: Homo sapiens, U-87 MG; MTT, 72 h after drug exposure
Experimental: as §1, §2

HeLa cells = experiment: Cell growth inhibition assay (MTT); assay type: cell-based, human; conditions: Homo sapiens, HeLa, 72 h after drug exposure
Experimental: as §1, §2

HepG2 cells = experiment: Cell growth inhibition assay (MTT); assay type: cell-based, human; conditions: Homo sapiens, HepG2, 72 h after drug exposure
Experimental: as §1, §2

PC-3 cells = experiment: Cell growth inhibition assay (MTT); assay type: cell-based, human; conditions: Homo sapiens, PC-3, 72 h after drug exposure
Experimental: as §1, §2

LNCaP cells = experiment: Cell growth inhibition assay (MTT); assay type: cell-based, human; conditions: Homo sapiens, LNCaP, 72 h after drug exposure
Experimental: as §1, §2

HEK-293 cells = experiment: Cell growth inhibition assay (MTT), non-tumorigenic cells; assay type: cell-based, human; conditions: Homo sapiens, HEK293, 72 h after drug exposure, non-tumorigenic cell line
Experimental: as §1, §2

bovine brain tubulin = experiment: Tubulin polymerization inhibition (turbidimetry); assay type: biochemical; conditions: for % TPI: compounds tested at 10 µM, with respect to the negative control; for IC50: concentration inhibiting 50% of microtubular protein polymerization in vitro, read-out: TPI IC50; for Tubulin polymerization inhibition (in words): 10 µM
Experimental: Microtubular protein was isolated from calf brain following the modified Shelanski method, based on temperature-dependent assembly/disassembly of tubulin [45]. The protein was stored at −80 °C, and its concentration was determined using the Bradford method before each use. Tubulin polymerization, which occurs when heating a buffered tubulin sample from 4 °C to 37 °C, is accompanied by an increase in the absorbance (at 450 nm) of the sample that was monitored by a Helios α spectrophotometer. […] Then, the temperature was adjusted to 4 °C, and the temperature being shifted to 37 °C allowed for the assembly process of tubulin. The turbidity caused by tubulin polymerization was measured by the increased absorbance at 450 nm. The increase in absorbance obtained for the control sample (without the ligand), which we considered to be 100% tubulin polymerization (0% inhibition), compared with the increase in absorbance determined for the sample containing ligands yielded the degree of tubulin polymerization inhibition (TPI), which is expressed as a percentage value. For the compounds displaying TPI values over 50% at 10 µM, the IC50 value for TPI was calculated. Measurements were performed in triplicate in two independent experiments using microtubular protein from different preparations.

HT-29 cells [2] = experiment: Cell growth inhibition (MTT) in the presence of 10 µM verapamil (sensitivity to MDR efflux pumps); assay type: cell-based, human; conditions: 10 µM verapamil (P-gp/MDR1 inhibitor)
Experimental: as §2

[3] = Aqueous solubility, shake-flask method; assay type: physicochemical; conditions: pH 7.0 buffer, pH 7, aqueous buffer, thermodynamic from solid, shaking flask, buffered media at pH 7.0, mean of three
Experimental: The aqueous solubility of compounds was measured in a Helios Alfa Spectrophotometer. Calibration lines at the maximum wavelength of absorbance were determined for each compound. Then, following the shake-flask method, a suspension of 5 mg of each compound in 500 µL in pH 7.0 buffer was stirred for 72 h at room temperature. The mixture was then filtrated over a […] filter to remove the insoluble fraction. The concentration of the compound in the resulting saturated solution was determined via UV absorbance measurement and interpolation in the calibration line. The aqueous solubility values are given as the average of three independent measurements.

Row | SMILES | IC50 (MCF7 cells) [nM] | IC50 (HT-29 cells [1]) [nM] | IC50 (U87MG cells) [nM] | IC50 (HeLa cells) [nM] | IC50 (HepG2 cells) [nM] | IC50 (PC-3 cells) [nM] | IC50 (LNCaP cells) [nM] | IC50 (bovine brain tubulin) [nM] | IC50 (HT-29 cells [2]) [nM] | solubility at 72 h [3] [µg/mL] | IC50 (GL261 cells) [nM] | IC50 (T98G cells) [nM] | IC50 (HEK-293 cells) [nM] | % TPI (bovine brain tubulin) [%] | Tubulin polymerization inhibition (in words) (bovine brain tubulin)
1 | COc1ccc2nc(NCc3ccccc3)sc2c1 [Compound 5, N-benzyl-6-methoxybenzo[d]thiazol-2-amine] | 6310 | > 10000 | 8310 | 4360 | 5780 | > 10000 | 5970 | > 10000 | > 10000 | 5 (≈ 18.5 µM) | 7250 | > 10000 | > 10000 | 0 | –
2 | COc1ccc(S(=O)(=O)Nc2cccnc2Nc2ccc(O)cc2)cc1 [ABT-751, reference compound] | 180 | 213 | 375 | 388 | 327 | 422 | 325 | 4400 | – | – | 309 | 421 | 1230 | – | –
3 | CCNC(=O)N(Cc1[nH]cnc1C)c1nc2ccc(OC)cc2s1 [Compound 10, 3-ethyl-1-(6-methoxybenzo[d]thiazol-2-yl)-1-((4-methyl-1H-imidazol-5-yl)methyl)-urea] | > 10000 | > 10000 | > 10000 | > 10000 | > 10000 | > 10000 | > 10000 | > 10000 | > 10000 | 178 (≈ 515 µM) | > 10000 | > 10000 | > 10000 | 0 | not able to inhibit tubulin polymerization
4 | COc1ccc2nc(N(Cc3ccncc3)C(C)=O)sc2c1 [Compound 21, N-(6-methoxybenzo[d]thiazol-2-yl)-N-(pyridin-4-ylmethyl)acetamide] | 1970 | 2230 | 1270 | 1220 | 1490 | 2630 | 1810 | > 10000 | 2550 | 90 (≈ 287 µM) | 1590 | 2300 | > 10000 | 41 | –
5 | CCNC(=O)N(Cc1ccccc1)c1nc2ccc(OC)cc2s1 [Compound 11, 1-benzyl-3-ethyl-1-(6-methoxybenzo[d]thiazol-2-yl)urea] | 2040 | > 10000 | 2910 | 2710 | 2450 | > 10000 | 2370 | > 10000 | > 10000 | 16 (≈ 46.9 µM) | 2930 | > 10000 | > 10000 | 6 | –
6 | COc1ccc2nc(NCc3[nH]cnc3C)sc2c1 [Compound 4, 6-methoxy-N-((4-methyl-1H-imidazol-5-yl)methyl)benzo[d]thiazol-2-amine] | > 10000 | > 10000 | > 10000 | 9330 | > 10000 | > 10000 | > 10000 | > 10000 | > 10000 | 86 (≈ 313 µM) | > 10000 | > 10000 | > 10000 | 0 | not able to inhibit tubulin polymerization
7 | COc1ccc2nc(NCc3ccc4ccccc4c3)sc2c1 [Compound 6, 6-methoxy-N-(naphthalen-2-ylmethyl)benzo[d]thiazol-2-amine] | 4230 | > 10000 | 6540 | 3710 | 4510 | > 10000 | 4320 | > 10000 | > 10000 | – | 6250 | > 10000 | > 10000 | 7 | not able to inhibit tubulin polymerization

More lines, main results first:

Row | IC50 (MCF7 cells) [nM] | IC50 (HT-29 cells [1]) [nM] | IC50 (U87MG cells) [nM] | IC50 (HeLa cells) [nM] | IC50 (HepG2 cells) [nM] | IC50 (PC-3 cells) [nM] | IC50 (LNCaP cells) [nM] | IC50 (bovine brain tubulin) [nM] | IC50 (HT-29 cells [2]) [nM] | solubility at 72 h [3] [µg/mL] | SMILES | IC50 (GL261 cells) [nM] | IC50 (T98G cells) [nM] | IC50 (HEK-293 cells) [nM] | % TPI (bovine brain tubulin) [%] | Tubulin polymerization inhibition (in words) (bovine brain tubulin)
8 | 911 | 1520 | 632 | 1030 | 813 | 1620 | 1390 | 8100 | 1480 | 93 (≈ 297 µM) | COc1ccc2nc(N(Cc3cccnc3)C(C)=O)sc2c1 [Compound 20, N-(6-methoxybenzo[d]thiazol-2-yl)-N-(pyridin-3-ylmethyl)acetamide] | 622 | 825 | 9900 | 57 | –
9 | 2030 | 2540 | 1410 | 1550 | 1880 | 3010 | 2070 | > 10000 | 2930 | 87 (≈ 278 µM) | COc1ccc2nc(N(Cc3ccccn3)C(C)=O)sc2c1 [Compound 19, N-(6-methoxybenzo[d]thiazol-2-yl)-N-(pyridin-2-ylmethyl)acetamide] | 1380 | 2440 | > 10000 | 43 | –
10 | 6300 | > 10000 | 7510 | 3900 | 4290 | > 10000 | 4950 | > 10000 | > 10000 | 13 (≈ 41.6 µM) | COc1ccc2nc(N(Cc3ccccc3)C(C)=O)sc2c1 [Compound 23, N-benzyl-N-(6-methoxybenzo[d]thiazol-2-yl)acetamide] | 6330 | > 10000 | > 10000 | 3 | –
11 | 13 | 307 | 22 | 51 | 55 | 20 | 10 | – | – | – | CC(=O)O[C@@]12CO[C@@H]1C[C@H](O)[C@@]1(C)C(=O)[C@H](O)C3=C(C)[C@@H](OC(=O)[C@H](O)[C@@H](NC(=O)OC(C)(C)C)c4ccccc4)C[C@@](O)([C@@H](OC(=O)c4ccccc4)[C@H]21)C3(C)C [DTX, docetaxel, reference compound] | 35 | 59 | 1550 | – | –
